For data set [1] the following is noted: dog, in vivo. How it is done:
(§1) One or two capsules containing the test substance were orally administered at 8:00 AM to the dogs following the experimental plan. […] The blood samples were centrifuged at 5000g for 10 min at 4 °C to collect plasma and then stored at − 80 °C until analysis. […] The volume of urine and weight of faeces were recorded and all samples were stored at − 80 °C until analysis. All dogs were reused with a washed out period of two weeks, to allow complete excretion of bioactive triterpenoids.
To evaluate significant differences between the pre- and post-dose of the test substances to the health status of dogs, the biochemical data were compared by using Student’s t-test. […] Cmax and Tmax were directly determined from plasma concentration–time curves. AUC0-24 was calculated using the trapezoidal rule and extrapolated to time infinity by the equation AUC0-inf = AUC0–24 + (Clast/kel), where Clast is the last observed plasma concentration after dosing and kel is the elimination rate constant. MRT was calculated as AUMC0-inf/AUC0-inf, where AUMC0-inf is the area under the first moment concentration–time curve. Vd was equal to dose/C0, where C0 is the plasma concentration at time zero and CL was calculated as dose/AUC0-inf. […] Absolute bioavailability was calculated as (AUCp.o./DOSEp.o.)/(AUCi.v./DOSEi.v.) × 100. Relative bioavailability was calculated from (AUCCTS/DOSECTS)/(AUCECa/DOSEECa) × 100. […]

For data set [2] the following is noted: dog, in vivo.
Excerpt: Eight healthy 8-month-old male beagles were obtained from the Chulalongkorn University Laboratory Animal Centre (CULAC), Chulalongkorn University. […] Food was provided twice a day, and water was available ad libitum. […] The animal experiments were approved by the Institutional Animal Care and Use Committee of the CULAC, Chulalongkorn University, Bangkok, Thailand (Protocol number 2073002, Approval date: February 21, 2020). All animal procedures were complied with the ethical principles and guidelines for the use of animals (National Research Council of Thailand, 2015). All animal experiments followed the ARRIVE reporting guidelines for documenting animal experiments.
as §1
All biological samples (plasma, urine, and faeces) were subjected to protein precipitation to extract the major triterpenoids from the samples. Two hundred microliters of methanol with two internal standards (glycyrrhizin and glycyrrhetinic acid) was added to 50 µL of the biological sample and mixed for 10 min. Then, the sample was centrifuged at 12,000g for 10 min at 4 °C, and 10 µL of supernatant was injected into the LC–MS/MS system. Faeces samples were homogenised by adding methanol, then the mixture was centrifuged at 1500g for 10 min at 4 °C to collect the supernatant. In the case of the concentration of the biological sample exceeded the linear calibration curve; blank matrices were used to dilute before protein precipitation. For method validation, all major components in the biological sample of dog were determined and validated according to the previous reports with little modification.
The LC–MS/MS system was set up according to a previous published method. In brief, an LCMS-8060 coupled with a triple quadrupole mass spectrometer was controlled by LabSolution software version 5.86 (Shimadzu Corp.). A Synergi Fusion-RP C18 column (Phenomenex Inc.) maintained at 40 °C was used as the stationary phase. The analysis was run using absolute methanol and 0.2% formic acid in water as the mobile phase.
To evaluate significant differences between the pre- and post-dose of the test substances to the health status of dogs, the biochemical data were compared by using Student’s t-test. PK solution software version 2.0 (Summit Research Services) was used to analyse pharmacokinetic parameters by non-compartmental analysis. Cmax and Tmax were directly determined from plasma concentration–time curves. AUC0-24 was calculated using the trapezoidal rule and extrapolated to time infinity by the equation AUC0-inf = AUC0–24 + (Clast/kel), where Clast is the last observed plasma concentration after dosing and kel is the elimination rate constant. MRT was calculated as AUMC0-inf/AUC0-inf, where AUMC0-inf is the area under the first moment concentration–time curve. Vd was equal to dose/C0, where C0 is the plasma concentration at time zero and CL was calculated as dose/AUC0-inf. […] Absolute bioavailability was calculated as (AUCp.o./DOSEp.o.)/(AUCi.v./DOSEi.v.) × 100. Relative bioavailability was calculated from (AUCCTS/DOSECTS)/(AUCECa/DOSEECa) × 100. Before performing the statistical analysis in SPSS version 22.0 (IBM Corp.), the Shapiro–Wilk test was used to determine whether the data were normally distributed. A paired Student’s t test or Wilcoxon signed-rank test was used to determine significant differences of pharmacokinetic parameters between the groups.
This is another data set of the same source.

The conditions of data set [3]: dog, in vivo, iv. How it is done:
as §1
All biological samples (plasma, urine, and faeces) were subjected to protein precipitation to extract the major triterpenoids from the samples. […] For method validation, all major components in the biological sample of dog were determined and validated according to the previous reports with little modification. […]
To evaluate significant differences between the pre- and post-dose of the test substances to the health status of dogs, the biochemical data were compared by using Student’s t-test. […] Cmax and Tmax were directly determined from plasma concentration–time curves. AUC0-24 was calculated using the trapezoidal rule and extrapolated to time infinity by the equation AUC0-inf = AUC0–24 + (Clast/kel), where Clast is the last observed plasma concentration after dosing and kel is the elimination rate constant. […] Absolute bioavailability was calculated as (AUCp.o./DOSEp.o.)/(AUCi.v./DOSEi.v.) × 100. […]

For the compound `C[C@H]1[C@H](C)CC[C@]2(C(=O)O[C@@H]3O[C@H](CO[C@@H]4O[C@H](CO)[C@@H](O[C@@H]5O[C@@H](C)[C@H](O)[C@@H](O)[C@H]5O)[C@H](O)[C@H]4O)[C@@H](O)[C@H](O)[C@H]3O)CC[C@]3(C)C(=CC[C@@H]4[C@@]5(C)C[C@@H](O)[C@H](O)[C@@](C)(CO)[C@@H]5[C@H](O)C[C@]43C)[C@H]12` [madecassoside], in data set [1], the “measured biochemical parameters (haematology, kidney, liver functions), pre-dose versus post-dose” value is “no significant differences”. In data set [2] (iv, 0.46 mg/kg), the AUC0-24 of madecassoside is recorded as 15,662 ± 1927 µg.h/L, the AUC0-inf of madecassoside is listed as 15,705 ± 1938 µg.h/L, the Half-life of madecassoside is listed as 3.88 (0.40) h and the MRT of madecassoside stood at 8.05 ± 0.99 h. Also, the Vd of madecassoside in data set [2] (iv, 0.46 mg/kg) is 0.18 ± 0.05 L/kg. In data set [3], the “excretion route of parent triterpenoid glycosides” value is “excreted via urine within 24 h”.

Regarding `C[C@H]1[C@H](C)CC[C@]2(C(=O)O)CC[C@]3(C)C(=CC[C@@H]4[C@@]5(C)C[C@@H](O)[C@H](O)[C@@](C)(CO)[C@@H]5CC[C@]43C)[C@H]12` [asiatic acid], in data set [2] (po), the “plasma concentration compared with madecassic acid” value is reported as “approximately tenfold higher”.
